Reference: the NIST ThermoML archive (doi:10.1016/j.jct.2004.01.006)
Values joined by “and” are separate entries in the source; they are usually repeats but may differ in a detail not shown here. Equal values may be shown once. ± gives the expanded uncertainty stated by the source.

Assay: molar heat capacity at constant pressure
Conditions: 101.33 kPa

O=Cc1ccc(Cl)cc1Cl [2,4-dichlorobenzaldehyde]
Conditions	molar heat capacity at constant pressure
79.17 K, Crystal	71.3 ± 1.8 J/K/mol
80 K, Crystal	71.33 ± 1.8 J/K/mol
81.36 K, Crystal	72.02 ± 1.8 J/K/mol
83.11 K, Crystal	72.63 ± 1.9 J/K/mol
85 K, Crystal	73.98 ± 1.9 J/K/mol
85.3 K, Crystal	73.72 ± 1.9 J/K/mol
87.49 K, Crystal	74.91 ± 1.9 J/K/mol
89.6 K, Crystal	76.29 ± 1.9 J/K/mol
90 K, Crystal	76.75 ± 2 J/K/mol
91.66 K, Crystal	77.86 ± 2 J/K/mol
93.69 K, Crystal	79.02 ± 2.1 J/K/mol
95 K, Crystal	79.6 ± 2.1 J/K/mol
95.68 K, Crystal	80.2 ± 2.1 J/K/mol
97.64 K, Crystal	81.37 ± 2.1 J/K/mol
99.56 K, Crystal	82.67 ± 2.1 J/K/mol
100 K, Crystal	82.48 ± 2.1 J/K/mol
101.45 K, Crystal	83.56 ± 2.1 J/K/mol
103.32 K, Crystal	84.39 ± 2.2 J/K/mol
105 K, Crystal	85.38 ± 2.2 J/K/mol
105.16 K, Crystal	85.43 ± 2.2 J/K/mol
106.97 K, Crystal	86.65 ± 2.2 J/K/mol
108.76 K, Crystal	87.94 ± 2.2 J/K/mol
110 K, Crystal	88.26 ± 2.2 J/K/mol
110.53 K, Crystal	88.83 ± 2.2 J/K/mol
112.28 K, Crystal	89.53 ± 2.2 J/K/mol
114 K, Crystal	90.58 ± 2.3 J/K/mol
115 K, Crystal	91.11 ± 2.3 J/K/mol
115.71 K, Crystal	91.48 ± 2.3 J/K/mol
117.4 K, Crystal	92.47 ± 2.3 J/K/mol
119.07 K, Crystal	93.42 ± 2.3 J/K/mol
120 K, Crystal	93.92 ± 2.3 J/K/mol
120.73 K, Crystal	94.06 ± 2.3 J/K/mol
122.36 K, Crystal	94.81 ± 2.3 J/K/mol
123.99 K, Crystal	95.87 ± 2.3 J/K/mol
125 K, Crystal	96.69 ± 2.3 J/K/mol
125.6 K, Crystal	96.98 ± 2.4 J/K/mol
127.19 K, Crystal	97.8 ± 2.4 J/K/mol
128.78 K, Crystal	98.46 ± 2.4 J/K/mol
130 K, Crystal	99.4 ± 2.4 J/K/mol
130.34 K, Crystal	99.55 ± 2.4 J/K/mol
131.9 K, Crystal	100.68 ± 2.4 J/K/mol
133.44 K, Crystal	101.08 ± 2.4 J/K/mol
134.97 K, Crystal	101.62 ± 2.4 J/K/mol
135 K, Crystal	102.07 ± 2.4 J/K/mol
136.49 K, Crystal	102.52 ± 2.4 J/K/mol
138 K, Crystal	103.61 ± 2.5 J/K/mol
139.5 K, Crystal	104.14 ± 2.5 J/K/mol
140 K, Crystal	104.7 ± 2.5 J/K/mol
140.99 K, Crystal	104.87 ± 2.5 J/K/mol
142.47 K, Crystal	105.48 ± 2.5 J/K/mol
143.93 K, Crystal	106.66 ± 2.5 J/K/mol
145 K, Crystal	107.29 ± 2.5 J/K/mol
145.39 K, Crystal	107.75 ± 2.5 J/K/mol
146.84 K, Crystal	108.26 ± 2.5 J/K/mol
148.28 K, Crystal	109.04 ± 2.5 J/K/mol
149.71 K, Crystal	109.83 ± 2.6 J/K/mol
150 K, Crystal	109.85 ± 2.6 J/K/mol
151.13 K, Crystal	111.12 ± 2.6 J/K/mol
152.54 K, Crystal	111.74 ± 2.6 J/K/mol
153.94 K, Crystal	112.08 ± 2.6 J/K/mol
155 K, Crystal	112.39 ± 2.6 J/K/mol
155.34 K, Crystal	112.93 ± 2.6 J/K/mol
157.51 K, Crystal	113.86 ± 2.6 J/K/mol
160 K, Crystal	114.92 ± 2.6 J/K/mol
160.42 K, Crystal	115.39 ± 2.6 J/K/mol
163.32 K, Crystal	116.39 ± 2.7 J/K/mol
165 K, Crystal	117.44 ± 2.7 J/K/mol
166.18 K, Crystal	117.94 ± 2.7 J/K/mol
169.01 K, Crystal	119.36 ± 2.7 J/K/mol
170 K, Crystal	119.97 ± 2.7 J/K/mol
171.81 K, Crystal	121.11 ± 2.7 J/K/mol
174.59 K, Crystal	122.69 ± 2.8 J/K/mol
175 K, Crystal	122.52 ± 2.8 J/K/mol
177.33 K, Crystal	124.06 ± 2.8 J/K/mol
180 K, Crystal	125.09 ± 2.8 J/K/mol
180.05 K, Crystal	125.43 ± 2.8 J/K/mol
182.75 K, Crystal	126.44 ± 2.8 J/K/mol
185 K, Crystal	127.68 ± 2.8 J/K/mol
185.43 K, Crystal	127.77 ± 2.8 J/K/mol
190 K, Crystal	130.3 ± 2.9 J/K/mol
190.71 K, Crystal	130.68 ± 2.9 J/K/mol
193.31 K, Crystal	131.82 ± 2.9 J/K/mol
195 K, Crystal	133 ± 2.9 J/K/mol
195.91 K, Crystal	133.03 ± 2.9 J/K/mol
198.41 K, Crystal	134.61 ± 3 J/K/mol
200 K, Crystal	135.65 ± 3 J/K/mol
200.76 K, Crystal	135.6 ± 3 J/K/mol
203.12 K, Crystal	136.47 ± 3 J/K/mol
205 K, Crystal	138.37 ± 3 J/K/mol
205.61 K, Crystal	137.67 ± 3 J/K/mol
208.11 K, Crystal	139.14 ± 3 J/K/mol
210 K, Crystal	141.12 ± 3.1 J/K/mol
210.61 K, Crystal	140.62 ± 3.1 J/K/mol
213.05 K, Crystal	142.39 ± 3.1 J/K/mol
215 K, Crystal	143.89 ± 3.1 J/K/mol
215.46 K, Crystal	143.66 ± 3.1 J/K/mol
217.88 K, Crystal	145.35 ± 3.1 J/K/mol
220 K, Crystal	146.69 ± 3.2 J/K/mol
220.3 K, Crystal	147.01 ± 3.2 J/K/mol
222.73 K, Crystal	148.63 ± 3.2 J/K/mol
225 K, Crystal	149.5 ± 3.2 J/K/mol
225.15 K, Crystal	150.44 ± 3.2 J/K/mol
227.5 K, Crystal	152.1 ± 3.2 J/K/mol
229.92 K, Crystal	153.24 ± 3.3 J/K/mol
230 K, Crystal	152.31 ± 3.2 J/K/mol
232.35 K, Crystal	154.92 ± 3.3 J/K/mol
234.92 K, Crystal	156.38 ± 3.3 J/K/mol
235 K, Crystal	155.12 ± 3.3 J/K/mol
237.8 K, Crystal	157.76 ± 3.3 J/K/mol
240 K, Crystal	157.9 ± 3.3 J/K/mol
240.46 K, Crystal	159.08 ± 3.3 J/K/mol
242.88 K, Crystal	160.14 ± 3.4 J/K/mol
245 K, Crystal	160.64 ± 3.4 J/K/mol
245.08 K, Crystal	161.43 ± 3.4 J/K/mol
247.12 K, Crystal	162.34 ± 3.4 J/K/mol
249.24 K, Crystal	163.27 ± 3.4 J/K/mol
250 K, Crystal	163.39 ± 3.4 J/K/mol
251.44 K, Crystal	164.55 ± 3.4 J/K/mol
253.56 K, Crystal	165.45 ± 3.5 J/K/mol
255 K, Crystal	166.07 ± 3.5 J/K/mol
255.68 K, Crystal	166.2 ± 3.5 J/K/mol
257.73 K, Crystal	166.92 ± 3.5 J/K/mol
259.85 K, Crystal	167.67 ± 3.5 J/K/mol
260 K, Crystal	168.69 ± 3.5 J/K/mol
261.89 K, Crystal	168.77 ± 3.5 J/K/mol
264.01 K, Crystal	169.61 ± 3.5 J/K/mol
265 K, Crystal	171.25 ± 3.5 J/K/mol
266.06 K, Crystal	170.55 ± 3.5 J/K/mol
268.03 K, Crystal	171.61 ± 3.5 J/K/mol
270 K, Crystal	173.73 ± 3.6 J/K/mol
270.08 K, Crystal	172.38 ± 3.6 J/K/mol
272.05 K, Crystal	173.75 ± 3.6 J/K/mol
274.01 K, Crystal	174.95 ± 3.6 J/K/mol
275 K, Crystal	176.14 ± 3.6 J/K/mol
275.99 K, Crystal	175.77 ± 3.6 J/K/mol
277.95 K, Crystal	176.86 ± 3.6 J/K/mol
279.85 K, Crystal	177.84 ± 3.6 J/K/mol
280 K, Crystal	178.48 ± 3.7 J/K/mol
281.74 K, Crystal	178.91 ± 3.7 J/K/mol
283.64 K, Crystal	179.72 ± 3.7 J/K/mol
285 K, Crystal	180.75 ± 3.7 J/K/mol
285.53 K, Crystal	180.86 ± 3.7 J/K/mol
287.42 K, Crystal	181.6 ± 3.7 J/K/mol
289.24 K, Crystal	182.74 ± 3.7 J/K/mol
290 K, Crystal	182.93 ± 3.7 J/K/mol
291.06 K, Crystal	183.73 ± 3.7 J/K/mol
292.88 K, Crystal	184.79 ± 3.8 J/K/mol
294.62 K, Crystal	185.72 ± 3.8 J/K/mol
295 K, Crystal	185.12 ± 3.8 J/K/mol
296.36 K, Crystal	186.66 ± 3.8 J/K/mol
298.03 K, Crystal	187.45 ± 3.8 J/K/mol
298.15 K, Crystal	186.47 ± 3.8 J/K/mol
299.7 K, Crystal	187.95 ± 3.8 J/K/mol
301.36 K, Crystal	188.77 ± 3.8 J/K/mol
303.86 K, Crystal	189.94 ± 3.8 J/K/mol
305 K, Crystal	189.4 ± 3.8 J/K/mol
306.12 K, Crystal	191.07 ± 3.9 J/K/mol
308.39 K, Crystal	191.8 ± 3.9 J/K/mol
310 K, Crystal	191.58 ± 3.9 J/K/mol
310.67 K, Crystal	192.53 ± 3.9 J/K/mol
312.95 K, Crystal	193.73 ± 3.9 J/K/mol
315 K, Crystal	193.86 ± 3.9 J/K/mol
319.7 K, Crystal	196.52 ± 3.9 J/K/mol
320 K, Crystal	196.27 ± 3.9 J/K/mol
321.89 K, Crystal	197.35 ± 4 J/K/mol
324.09 K, Crystal	198.21 ± 4 J/K/mol
325 K, Crystal	198.9 ± 4 J/K/mol
326.21 K, Crystal	199.12 ± 4 J/K/mol
328.41 K, Crystal	199.91 ± 4 J/K/mol
330 K, Crystal	201.83 ± 4 J/K/mol
330.53 K, Crystal	200.78 ± 4 J/K/mol
332.65 K, Crystal	201.79 ± 4 J/K/mol
334.67 K, Crystal	202.59 ± 4 J/K/mol
335 K, Crystal	205.15 ± 4.1 J/K/mol
336.74 K, Crystal	203.39 ± 4.1 J/K/mol
338.77 K, Crystal	205.71 ± 4.1 J/K/mol
340 K, Crystal	208.96 ± 4.1 J/K/mol
350 K, Liquid	208.08 ± 2.1 J/K/mol
350.08 K, Liquid	208.1 ± 2.1 J/K/mol
351.82 K, Liquid	208.76 ± 2.1 J/K/mol
353.56 K, Liquid	209.27 ± 2.1 J/K/mol
355 K, Liquid	209.85 ± 2.1 J/K/mol
355.74 K, Liquid	210.16 ± 2.1 J/K/mol
357.14 K, Liquid	210.51 ± 2.1 J/K/mol
358.64 K, Liquid	210.8 ± 2.1 J/K/mol
360 K, Liquid	211.16 ± 2.1 J/K/mol
361.51 K, Liquid	211.51 ± 2.1 J/K/mol
362.95 K, Liquid	211.74 ± 2.1 J/K/mol
364.32 K, Liquid	212.33 ± 2.1 J/K/mol
365 K, Liquid	212.44 ± 2.1 J/K/mol
365.61 K, Liquid	212.74 ± 2.1 J/K/mol
366.82 K, Liquid	213.06 ± 2.1 J/K/mol
367.95 K, Liquid	213.48 ± 2.1 J/K/mol
369.01 K, Liquid	213.84 ± 2.1 J/K/mol
369.7 K, Liquid	214.36 ± 2.1 J/K/mol
370 K, Liquid	214.39 ± 2.1 J/K/mol and 214.31 ± 2.1 J/K/mol
370.76 K, Liquid	214.45 ± 2.1 J/K/mol
371.51 K, Liquid	214.51 ± 2.1 J/K/mol and 214.66 ± 2.1 J/K/mol
